This is an account of results in paper PMC7690861, “Topical Administration of Cannabidiol: Influence of Vehicle-Related Aspects on Skin Permeation Process” (Pharmaceuticals, 2020).

Details of series [1]: method as in Burke [29]. Conditions: experimental; ref Burke [29]; cited from earlier work.
For series [2] the following is noted: Fedors method; ref Minghetti et al. [26]; cited from earlier work.
Series [3] can be described thus: physchem.
Protocol: The equilibrium solubility of CBD in each of the above-mentioned solvent systems was determined by the shake-flask method. An excess quantity of the cannabinoid compound was added to 1 mL of each test solution in a glass vial. […] In the case of aqueous solutions, the supernatant fluid was then filtered (0.45 μm PP syringe filter) and properly diluted in methanol before being analyzed by HPLC. In the case of oily solutions, the supernatant fluid was filtered (0.45 μm PVDF syringe filter); then, 60 μL of the filtered solution was withdrawn and added to 5 mL of methanol; the mixture was vortexed for 1 min and allowed to stand for 1 min three times, then it was centrifuged (4000 rpm, 2 min); the supernatant fluid was sampled and properly diluted in methanol before being analyzed by HPLC. Each solubility value was calculated as the mean of three independent shake-flask experiments, considering any dilution factors and an extraction efficiency factor in case of oily solutions.
A short description of series [4]: Preliminary chemical stability of CBD in tested formulations (total impurities). The class given is physicochemical. The settings on record: over the preparation process and the permeation experiments; preliminary data. An excerpt: Evidence in the literature highlighted that CBD was quite unstable in a solution for a long period. Even if an in-depth investigation of the chemical stability of CBD loaded in the tested formulation has not been performed yet, preliminary data highlighted that CBD was stable over both the preparation process and the permeation experiments (total impurities < 2% of CBD assay). […] Further studies are needed to determine the long-term stability of the tested formulations.
HPLC analysis was run using an HP 1100 ChemStation system (Agilent Technologies Inc, USA), acetonitrile/phosphate buffer pH 3.0 (75/25, v/v) was used as mobile phase at a flow rate of 1.5 mL/min, injection volume was set at 20 μL. The UV detector was set at a wavelength of 215 nm. A reverse-phase C8 column (InertClone™, 5 μm, 150 × 4.6 mm; Phenomenex Inc, Torrance, USA) was used. The retention time of the CBD was 4.0 min. Two calibration curves were made in the overall range of 0.02–100 μg/mL.

A word on the solubility: it is how much of the substance goes into solution per volume. A higher solubility goes with a readily soluble substance.

Values after ≈ are worked out from the molar mass of the structure shown. Read-outs that look alike come from different tables or passages of the source. Marks after values point to notes of the source that are not given here.

Take `CC(O)CO` (stereo not shown) [Propylene glycol]: the “δ (solubility parameter)” value in series [1] was 14.80 ^d cal/cm^3.
As to O-acylglucosylceramide, the “δ (solubility parameter)” value in series [2] is on record as 10.03 ^a cal/cm^3.
The compound `C=C(C)[C@@H]1CCC(C)=C[C@H]1c1c(O)cc(CCCCC)cc1O` [CBD, Cannabidiol] yielded a solubility at 24 h in series [3] of 2240 ± 80 µg/mL (≈ 7.12 mM). Further, the Total impurities in series [4] is on record as < 2 % of CBD assay.
